Data on 16 compounds can be found in PubChem BioAssay AID2060604 (Molecular Pharmacology Branch, DTP, NCI, 2025).

Where “and” joins values, the source holds several entries; their conditions need not be identical. Equal values may be shown once.

The test system of the assay is 379773-124-R-J2-PDC complex spheroids, viability % test/control. Put plainly: Anticancer human tumor 379773-124-R-J2-PDC patient-derived endometrial carcinoma cell line growth inhibition [CLK]. The conditions noted are these: for viability, T/C: stronger effect = lower value. The source says: A high-throughput screen of multi-cell type tumor spheroids was designed to identify active combinations of […] and targeted small molecules. Complex spheroids include a stromal component modeled by human endothelial cells (HUVEC) and fibroblasts modeled by human mesenchymal stem cells (MSCs). The concentration ranges selected for each drug and investigational agent were based upon clinically achievable concentrations if the clinical Cmax of the agent was known.
Compounds. The drugs and investigational agents: cirtuvivint (SM08502; NSC835563), CC-671 (NSC850746), vemurafenib (NSC761431), tapotoclax (NSC804041), sotorasib (NSC818433), adagrasib (NSC831453), MRTX-1133 (NSC836407), BAY2416964 (NSC825713), copanlisib (NSC816437), inavolisib (NSC800729), abemaciclib (NSC768073), osimertinib (NSC779217), entinostat (NSC756642), eltanexor (KPT-8602, NSC794443), venetoclax (NSC766270), ceralasertib (NSC777638), bortezomib (NSC756655), olaparib (NSC753686), talazoparib (NSC767125), alisertib (NSC759677), peposertib (NSC802822), gemcitabine (NSC613327), 5-fluorouracil (NSC19893), SN-38 (NSC673596), oxaliplatin (NSC266046), paclitaxel (NSC125973), and doxorubicin (NSC123127), were obtained from the National Cancer Institute (NCI) Developmental Therapeutics Program Chemical Repository. The FDA-approved anticancer drug set is available from the Developmental Therapeutics Program at https://dtp.cancer.gov/organization/dscb/obtaining/available plates.htm. […] The stock solutions were prepared in dimethyl sulfoxide (DMSO, Sigma-Aldrich, St. Louis, MO, cat. D2650), except for the platinum complexes which were prepared in saline (Quality Biological, Gaithersburg, MD, cat. 114-055-101), at 800-fold the tested concentration and stored at -70 degrees C prior to their use. All drugs and investigational agents were tested over a range starting from a high concentration at or near the clinical Cmax and decreasing in half-log increments. If the clinical Cmax for an agent had not been determined, the highest concentration tested was 10 microM.
Cell Culture. All cells were maintained in an incubator at 37 degrees C and 5% CO2 with 95% humidity. The PDC lines were cultured according to standard operating procedures established by the NCI PDMR. Briefly, all PDCs were thawed and cultured in Matrigel-coated flasks prepared with a working solution of 1X Ham's F-12 nutrient mix, without supplementation (Invitrogen, Waltham, MA, cat. 11765054), 100 U/mL penicillin-streptomycin (Invitrogen, cat. 15140122), and 2.5% Matrigel (Corning Inc., Corning, NY, cat. 354248) for the first three passages. The 947758-054-R-J2-PDC line was cultured in 6B/Colon 1A media, which includes advanced DMEM/F-12 (Thermo Fisher Scientific, cat. 12634028), 10 mM HEPES (Thermo Fisher Scientific, cat. 15630080), 1X GlutaMAX supplement (Thermo Fisher Scientific, cat. 35050061), 0.1 mg/mL primocin (InvivoGen, cat. ant-pm-2), 10% defined fetal bovine serum, heat inactivated (HyClone Laboratories Inc., cat. SH30070.03HI), 1.25 mM N-Acetyl-L-cysteine (Sigma-Aldrich, cat. A9165), 10 mM nicotinamide (Sigma-Aldrich, cat. N0636), 1X B-27 supplement (Thermo Fisher Scientific, cat. 17504044), 1X N-2 supplement (Thermo Fisher Scientific, cat. 17502048), and 10 microM Y-27632 dihydrochloride (Tocris Bioscience, cat. 1254). The 876862-298-R-J1-PDC was cultured in 6E media, which includes all 6B/Colon 1A media components plus 50% L-WRN conditioned media (ATCC, cat. CRL-3276), 50 ng/mL recombinant human EGF recombinant protein (hEGF; Thermo Fisher Scientific, cat. PHG0311), 10 ng/mL recombinant human fibroblast growth factor 10 (hGFG-10; PeproTech, cat. 100-26), 1 ng/mL recombinant human fibroblast growth factor 2 (hFGF-2; PeproTech, cat. 100-18B), and 1 µM prostaglandin E2 (PGE2; Tocris, cat. 2296). The 227483-062-R1-J1-PDC line was cultured in Panc media, containing all 6E components except hFGF-2, with the addition of 500 nM SB-431542 (Selleckchem, cat. S1067) and 10 nM gastrin (Tocris, cat. 3006). […]
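Also: compound exposure lasted seven days before the viability readout.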
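For viability, T/C in this document: 100% = DMSO vehicle control wells.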

Regarding `C#Cc1c(F)ccc2cc(O)cc(-c3ncc4c(N5CC6CCC(C5)N6)nc(OCC56CCCN5CC(F)C6)nc4c3F)c12` (stereo unspecified), the viability, T/C (usually the ratio of treated to control) (compound 0.0316 µM) is 90.6% and 93%; the viability, T/C (compound 0.1 µM) is 79.4% and 89.5%; the viability, T/C (compound 0.316 µM) was 88.3% and 86.8%; the viability, T/C (compound 1 µM) was 92% and 85.9%; the viability, T/C (compound 3.16 µM) was 87% and 103%; the viability, T/C (compound 10 µM) is 80% and 87.1%. Under “curve of compound”, the IC50 (in general, the midpoint of a concentration-inhibition curve) was over 10 µM.
Regarding `C=C(F)C(=O)N1CCN(c2nc(OCC3CCCN3C)nc3c2CCN(c2cccc4cccc(Cl)c24)C3)CC1CC#N` (stereo unspecified), the viability, T/C is 76.2% and 106% (compound 0.0316 µM); 93.9% and 84.4% (compound 0.1 µM); 95% and 80.9% (compound 0.316 µM); 92% and 98.5% (compound 1 µM); 33.3% and 66.9% (compound 3.16 µM); 0.2% and 1.39% (compound 10 µM). Moreover, the IC50 (curve of compound) was 2.24 µM and 4.26 µM.
Take `C=CC(=O)N1CCN(c2nc(=O)n(-c3c(C)ccnc3C(C)C)c3nc(-c4c(O)cccc4F)c(F)cc23)C(C)C1` (stereo unspecified): the viability, T/C by setting is: (compound 0.0316 µM) 93.1% and 85.7%; (compound 0.1 µM) 82.4% and 92.2%; (compound 0.316 µM) 88.2% and 84.4%; (compound 1 µM) 107% and 91.6%; (compound 3.16 µM) 95.7% and 98.6%; (compound 10 µM) 92.6% and 94.5%. The 50% inhibitory concentration (IC50) (curve of compound) was over 10 µM.
With `C=CC(=O)Nc1cc(Nc2nccc(-c3cn(C)c4ccccc34)n2)c(OC)cc1N(C)CCN(C)C`, the viability, T/C reads like this: (compound 0.000949 µM) 101% and 85.7%; (compound 0.003 µM) 87.9% and 87.5%; (compound 0.00949 µM) 91.7% and 74.8%; (compound 0.03 µM) 94.4% and 105%; (compound 0.0949 µM) 96.5% and 100%; (compound 0.3 µM) 98.5% and 90.8%. Further, where the note is “curve of compound”, the IC50 was over 0.3 µM.
In the case of `CC(C)CC(NC(=O)C(Cc1ccccc1)NC(=O)c1cnccn1)B(O)O` (stereo unspecified), the viability, T/C is, setting by setting: (compound 0.000949 µM) 83.2% and 77.4%; (compound 0.003 µM) 25.8% and 11.7%; (compound 0.00949 µM) 0.16% and 0.15%; (compound 0.03 µM) 0.22% and 0.21%; (compound 0.0949 µM) 0.19% and 0.16%; (compound 0.3 µM) 0.09% and 0.12%. Further, the IC50 (curve of compound) is 0.00185 µM and 0.00153 µM.
In the case of `CC(CO)NC(=O)c1cc(-c2ccc(Cl)cc2)nn(-c2cnn(C)c2)c1=O` (stereo unspecified), the viability, T/C is 98.9% and 90.2% (compound 0.0316 µM); 83.6% and 92.8% (compound 0.1 µM); 84.6% and 97.6% (compound 0.316 µM); 68% and 85.8% (compound 1 µM); 88.3% and 95.1% (compound 3.16 µM); 72.3% and 68.5% (compound 10 µM). The IC50 (curve of compound) is over 10 µM.
On to `CC(Nc1ccc2c(c1)OCCn1cc(N3C(=O)OCC3C(F)F)nc1-2)C(N)=O` (stereo unspecified), for which the viability, T/C (compound 0.0316 µM) is 84.9% and 92.7%; the viability, T/C (compound 0.1 µM) was 93.1% and 85.8%; the viability, T/C (compound 0.316 µM) was 93.5% and 79.4%; the viability, T/C (compound 1 µM) was 79% and 87.4%; the viability, T/C (compound 3.16 µM) is 77.1% and 78.5%; the viability, T/C (compound 10 µM) was 69.1% and 67.6%. The IC50 (curve of compound) is over 10 µM.
Take `CCCS(=O)(=O)Nc1ccc(F)c(C(=O)c2c[nH]c3ncc(-c4ccc(Cl)cc4)cc23)c1F`: the viability, T/C runs as follows: (compound 0.0316 µM) 83.1% and 93.8%; (compound 0.1 µM) 88.5% and 84.4%; (compound 0.316 µM) 85.2% and 98.8%; (compound 1 µM) 100% and 90.3%; (compound 3.16 µM) 81.5% and 78.6%; (compound 10 µM) 64.6% and 53.6%. Besides, the concentration for half-maximal inhibition (IC50) (curve of compound) is over 10 µM.
With `CCN1CCN(Cc2ccc(Nc3ncc(F)c(-c4cc(F)c5nc(C)n(C(C)C)c5c4)n3)nc2)CC1`, the viability, T/C (compound 0.00316 µM) was 87% and 87.5%; the viability, T/C (compound 0.01 µM) was 81.6% and 73%; the viability, T/C (compound 0.0316 µM) was 83.8% and 93.2%; the viability, T/C (compound 0.1 µM) was 110% and 88.4%; the viability, T/C (compound 0.316 µM) was 89.1% and 101%; the viability, T/C (compound 1 µM) was 81% and 78%. Besides, the 50% inhibitory concentration (IC50) (curve of compound) is over 1 µM.
Regarding `CCc1c2c(nc3ccc(O)cc13)-c1cc3c(c(=O)n1C2)COC(=O)[C@]3(O)CC`, the viability, T/C was 24.2% and 20.4% (compound 0.00316 µM); 8.01% and 6.62% (compound 0.01 µM); 5.03% and 4.19% (compound 0.0316 µM); 2.77% and 1.93% (compound 0.1 µM); 0.94% and 0.86% (compound 0.316 µM); 0.57% and 0.46% (compound 1 µM). Moreover, where the note is “curve of compound”, the half-inhibitory concentration (IC50) was under 0.00316 µM.
Regarding `CN1CCN(c2cc(C(=O)Nc3cc4cc(-c5cnn(C)c5)ccc4cn3)ccn2)CC1`, the viability, T/C is, setting by setting: (compound 0.0316 µM) 95.6% [middle of 12 runs]; (compound 0.316 µM) 28.3% [middle of 12 runs]; (compound 1 µM) 0.33% [middle of 10 runs]; (compound 3.16 µM) 0.29% [middle of 9 runs]; (compound 10 µM) 0.22% [middle of 9 runs]. Besides, the 50% inhibitory concentration (IC50) (compound alone, run of 09/18/2023) is 199 nM [middle of 12 runs].
Take `CNC(=O)c1ccc(Nc2nc(OC3CCCC3)c3c(-c4ccc5nc(C)oc5c4)c[nH]c3n2)c(OC)c1`: the viability, T/C (compound 0.0316 µM) is 82.9% [middle of 12 runs]; the viability, T/C (compound 0.1 µM) was 39.7% [middle of 12 runs]; the viability, T/C (compound 0.316 µM) is 39% [middle of 12 runs]; the viability, T/C (compound 1 µM) is 32.1% [middle of 12 runs]; the viability, T/C (compound 3.16 µM) was 35.5% [middle of 12 runs]; the viability, T/C (compound 10 µM) is 33.9% [middle of 12 runs]. Besides, the half-inhibitory concentration (IC50) (compound alone, run of 09/19/2023) was 75.8 nM [middle of 12 runs].
As for `COC1C=CCC(C)C(C)S(=O)(=O)NC(=O)c2ccc3c(c2)N(CC2CCC21)CC1(CCCc2cc(Cl)ccc21)CO3` (stereo unspecified), the viability, T/C (compound 0.0316 µM) was 96.5% and 98.1%; the viability, T/C (compound 0.1 µM) is 91.1% and 82%; the viability, T/C (compound 0.316 µM) was 98.4% and 83.7%; the viability, T/C (compound 1 µM) was 98.3% and 78.7%; the viability, T/C (compound 3.16 µM) is 84.1% and 88.6%; the viability, T/C (compound 10 µM) is 5.48% and 2.76%. The IC50 (curve of compound) amounted to 5.21 µM.
For `COc1c(OCCCN2CCOCC2)ccc2c3n(c(=NC(=O)c4cnc(N)nc4)nc12)CCN3`, the viability, T/C is 85.3% and 98.5% (compound 0.00316 µM); 91.9% and 72.6% (compound 0.01 µM); 73.5% and 69.3% (compound 0.0316 µM); 43.4% and 40.3% (compound 0.1 µM); 15.3% and 12.2% (compound 0.316 µM); 4.52% and 3.3% (compound 1 µM). Further, the IC50 (curve of compound) was 0.0787 µM and 0.0588 µM.
Turning to `Cn1ncnc1[C@H]1c2n[nH]c(=O)c3cc(F)cc(c23)N[C@@H]1c1ccc(F)cc1`, the viability, T/C (compound 0.000316 µM) was 97.3% and 82.2%; the viability, T/C (compound 0.001 µM) was 100% and 79.8%; the viability, T/C (compound 0.00316 µM) was 86.3% and 79.5%; the viability, T/C (compound 0.01 µM) was 86.8% and 79.1%; the viability, T/C (compound 0.0316 µM) is 72.3% and 49%; the viability, T/C (compound 0.1 µM) was 38.9% and 26.1%. Besides, the IC50 (curve of compound) is 0.0676 µM and 0.0305 µM.
As for `NC(=O)C(=Cn1cnc(-c2cc(C(F)(F)F)cc(C(F)(F)F)c2)n1)c1cncnc1`, the viability, T/C is 83.8% and 85.3% (compound 0.00949 µM); 74.8% and 59.7% (compound 0.03 µM); 41.1% and 33.7% (compound 0.0949 µM); 19.5% and 14.4% (compound 0.3 µM); 13.9% and 7.66% (compound 0.949 µM); 4.42% and 2.99% (compound 3 µM). Further, where the note is “curve of compound”, the IC50 was 0.0726 µM and 0.0459 µM.
